# Data: ChEMBL document CHEMBL3885881, “DrugMatrix”
# Organism: Rattus norvegicus
# Assay: DrugMatrix - Regimen: Daily Repeat
# Format: toxicity, organism-based, Sprague-Dawley
# Set-up: regimen Daily Repeat, gender Male, age 6-8 weeks
# Conditions: in vivo, po, route oral GAVAGE, vehicle .5 % CMC; for ABSOLUTE BASOPHIL / ABSOLUTE EOSINOPHIL / ABSOLUTE LYMPHOCYTE / ABSOLUTE MONOCYTE / ABSOLUTE SEGMENTED NEUTROPHIL / BASOPHIL / EOSINOPHIL / ERYTHROCYTE COUNT / HEMATOCRIT / HEMOGLOBIN / LEUKOCYTE COUNT / LYMPHOCYTE / MEAN CORPUSCULAR HEMOGLOBIN / MEAN CORPUSCULAR HEMOGLOBIN CONCENTRATION / MEAN CORPUSCULAR VOLUME / MONOCYTE / NEUTROPHIL / NUCLEATED RED BLOOD CELLS / PLATELET COUNT: tissue Blood; for ALANINE AMINOTRANSFERASE / ALBUMIN / ALKALINE PHOSPHATASE / ASPARTATE AMINOTRANSFERASE / BLOOD UREA NITROGEN / CARBON DIOXIDE / CHLORIDE / CHOLESTEROL / CREATINE PHOSPHOKINASE / CREATININE / GLUCOSE / LACTATE DEHYDROGENASE / LIPASE / PHOSPHORUS / POTASSIUM / SODIUM / TOTAL BILIRUBIN / TOTAL PROTEIN / URIC ACID: tissue Plasma
# [1] = 1 mg/kg, 120 h, dose level Low, time 5 day
# [2] = 1300 mg/kg, 72 h, dose level High, time 3 day
# [3] = 1300 mg/kg, 120 h, dose level High, time 5 day
compound,measurement,setting,value
CCOc1nc2cccc(C(=O)O)c2n1Cc1ccc(-c2ccccc2-c2nnn[nH]2)cc1,ABSOLUTE BASOPHIL,[1],0 CELLS/uL
same,ABSOLUTE EOSINOPHIL,[1],0 CELLS/uL
same,ABSOLUTE LYMPHOCYTE,[1],10713.33 CELLS/uL
same,ABSOLUTE MONOCYTE,[1],81.33 CELLS/uL
same,ABSOLUTE SEGMENTED NEUTROPHIL,[1],1172 CELLS/uL
same,BASOPHIL,[1],0%
same,EOSINOPHIL,[1],0%
same,ERYTHROCYTE COUNT,[1],5.35 x10E6/uL
same,HEMATOCRIT,[1],34.57%
same,HEMOGLOBIN,[1],13.63 G/DL
same,LEUKOCYTE COUNT,[1],11.97 x10E3/uL
same,LYMPHOCYTE,[1],89.67%
same,MEAN CORPUSCULAR HEMOGLOBIN,[1],25.5 pg
same,MEAN CORPUSCULAR HEMOGLOBIN CONCENTRATION,[1],39.43 G/DL
same,MEAN CORPUSCULAR VOLUME,[1],64.67 fL
same,MONOCYTE,[1],0.67%
same,NEUTROPHIL,[1],9.67%
same,NUCLEATED RED BLOOD CELLS,[1],0 /100WBC
same,PLATELET COUNT,[1],1267.33 x10E3/uL
same,ALANINE AMINOTRANSFERASE,[1],54 u/L
same,ALBUMIN,[1],4.1 G/DL
same,ALKALINE PHOSPHATASE,[1],389.33 u/L
same,ASPARTATE AMINOTRANSFERASE,[1],76.67 u/L
same,BLOOD UREA NITROGEN,[1],18.33 mg/dL
same,CARBON DIOXIDE,[1],27 mmol/L
same,CHLORIDE,[1],104.33 MEQ/L
same,CHOLESTEROL,[1],70.33 mg/dL
same,CREATINE PHOSPHOKINASE,[1],187.67 u/L
same,CREATININE,[1],0.19 mg/dL
same,GLUCOSE,[1],161.33 mg/dL
same,LACTATE DEHYDROGENASE,[1],120.67 u/L
same,LIPASE,[1],10.67 u/L
same,PHOSPHORUS,[1],12.2 mg/dL
same,POTASSIUM,[1],5.83 MEQ/L
same,SODIUM,[1],144.5 MEQ/L
same,TOTAL BILIRUBIN,[1],0.2 mg/dL
same,TOTAL PROTEIN,[1],5.97 G/DL
same,URIC ACID,[1],1.6 mg/dL
same,ABSOLUTE BASOPHIL,[2],0 CELLS/uL
same,ABSOLUTE EOSINOPHIL,[2],27.67 CELLS/uL
same,ABSOLUTE LYMPHOCYTE,[2],7595.67 CELLS/uL
same,ABSOLUTE MONOCYTE,[2],24.33 CELLS/uL
same,ABSOLUTE SEGMENTED NEUTROPHIL,[2],519 CELLS/uL
same,BASOPHIL,[2],0%
same,EOSINOPHIL,[2],0.33%
same,ERYTHROCYTE COUNT,[2],5.08 x10E6/uL
same,HEMATOCRIT,[2],32.2%
same,HEMOGLOBIN,[2],13.13 G/DL
same,LEUKOCYTE COUNT,[2],8.17 x10E3/uL
same,LYMPHOCYTE,[2],93%
same,MEAN CORPUSCULAR HEMOGLOBIN,[2],25.87 pg
same,MEAN CORPUSCULAR HEMOGLOBIN CONCENTRATION,[2],40.8 G/DL
same,MEAN CORPUSCULAR VOLUME,[2],63.43 fL
same,MONOCYTE,[2],0.33%
same,NEUTROPHIL,[2],6.33%
same,NUCLEATED RED BLOOD CELLS,[2],0 /100WBC
same,PLATELET COUNT,[2],1033.67 x10E3/uL
same,ALANINE AMINOTRANSFERASE,[2],54 u/L
same,ALBUMIN,[2],4.33 G/DL
same,ALKALINE PHOSPHATASE,[2],351.67 u/L
same,ASPARTATE AMINOTRANSFERASE,[2],93 u/L
same,BLOOD UREA NITROGEN,[2],27.33 mg/dL
same,CARBON DIOXIDE,[2],32 mmol/L
same,CHLORIDE,[2],102 MEQ/L
same,CHOLESTEROL,[2],73 mg/dL
same,CREATINE PHOSPHOKINASE,[2],813.67 u/L
same,CREATININE,[2],0.48 mg/dL
same,GLUCOSE,[2],143 mg/dL
same,LACTATE DEHYDROGENASE,[2],189.33 u/L
same,LIPASE,[2],10.33 u/L
same,PHOSPHORUS,[2],12.17 mg/dL
same,POTASSIUM,[2],7.02 MEQ/L
same,SODIUM,[2],143.6 MEQ/L
same,TOTAL BILIRUBIN,[2],0.23 mg/dL
same,TOTAL PROTEIN,[2],5.93 G/DL
same,URIC ACID,[2],0.93 mg/dL
same,ABSOLUTE BASOPHIL,[3],0 CELLS/uL
same,ABSOLUTE EOSINOPHIL,[3],140.67 CELLS/uL
same,ABSOLUTE LYMPHOCYTE,[3],14776.67 CELLS/uL
same,ABSOLUTE MONOCYTE,[3],166.33 CELLS/uL
same,ABSOLUTE SEGMENTED NEUTROPHIL,[3],1516.33 CELLS/uL
same,BASOPHIL,[3],0%
same,EOSINOPHIL,[3],0.67%
same,ERYTHROCYTE COUNT,[3],5.54 x10E6/uL
same,HEMATOCRIT,[3],34.57%
same,HEMOGLOBIN,[3],13.97 G/DL
same,LEUKOCYTE COUNT,[3],16.6 x10E3/uL
same,LYMPHOCYTE,[3],89.33%
same,MEAN CORPUSCULAR HEMOGLOBIN,[3],25.23 pg
same,MEAN CORPUSCULAR HEMOGLOBIN CONCENTRATION,[3],40.43 G/DL
same,MEAN CORPUSCULAR VOLUME,[3],62.43 fL
same,MONOCYTE,[3],1%
same,NEUTROPHIL,[3],9%
same,NUCLEATED RED BLOOD CELLS,[3],0 /100WBC
same,PLATELET COUNT,[3],1315 x10E3/uL
same,ALANINE AMINOTRANSFERASE,[3],42.33 u/L
same,ALBUMIN,[3],4.33 G/DL
same,ALKALINE PHOSPHATASE,[3],320.67 u/L
same,ASPARTATE AMINOTRANSFERASE,[3],108 u/L
same,BLOOD UREA NITROGEN,[3],32.33 mg/dL
same,CARBON DIOXIDE,[3],24.67 mmol/L
same,CHLORIDE,[3],105 MEQ/L
same,CHOLESTEROL,[3],61.67 mg/dL
same,CREATINE PHOSPHOKINASE,[3],994.33 u/L
same,CREATININE,[3],0.19 mg/dL
same,GLUCOSE,[3],134 mg/dL
same,LACTATE DEHYDROGENASE,[3],1053.67 u/L
same,LIPASE,[3],10 u/L
same,PHOSPHORUS,[3],11.2 mg/dL
same,POTASSIUM,[3],6.2 MEQ/L
same,SODIUM,[3],143.9 MEQ/L
same,TOTAL BILIRUBIN,[3],0.2 mg/dL
same,TOTAL PROTEIN,[3],6.2 G/DL
same,URIC ACID,[3],1.13 mg/dL
